In ChEMBL document CHEMBL1148807 (J Med Chem, 2007):
Activity calls are given as the source filed them. The calls are words filed in the database; no cut-off is given here. Non-standard residues stand in square brackets, D forms with d. Residues, ends and D or L forms follow the SMILES beside them. *: point of attachment. X1 = O=C(Cc1ccc(O)cc1)*

What was measured:
[1] = biological target: T1, Vasopressin V1a receptor (Homo sapiens, UniProt P37288); assay: Inhibition of human vasopressin V1a receptor expressed in COS7 cells by HTRF-FRET assay using 96-well plate membranes; format: cell-based; conditions: cos-7
Target sequence in this assay (P37288 whole entry): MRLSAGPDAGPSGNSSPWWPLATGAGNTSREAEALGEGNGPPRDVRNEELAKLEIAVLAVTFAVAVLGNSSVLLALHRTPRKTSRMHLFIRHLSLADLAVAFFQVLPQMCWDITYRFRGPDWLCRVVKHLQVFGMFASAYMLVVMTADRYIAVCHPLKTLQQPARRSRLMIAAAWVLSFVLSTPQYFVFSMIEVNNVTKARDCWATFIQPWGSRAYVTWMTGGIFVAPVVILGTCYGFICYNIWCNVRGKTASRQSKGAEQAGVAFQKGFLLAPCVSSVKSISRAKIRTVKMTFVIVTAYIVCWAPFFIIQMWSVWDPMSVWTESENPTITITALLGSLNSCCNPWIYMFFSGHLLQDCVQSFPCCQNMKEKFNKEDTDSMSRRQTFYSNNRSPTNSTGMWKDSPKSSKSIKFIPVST

[2] = biological target: T1, Vasopressin V1a receptor; assay: Inhibition of human vasopressin V1a receptor expressed in CHO cells by polarisation binding assay using 384-well plate membranes; format: cell-based
Target sequence in this assay (P37288 whole entry): as above

[3] = biological target: T1, Vasopressin V1a receptor; assay: Inhibition of human vasopressin V1a receptor expressed in COS7 cells by HTRF-FRET assay using 96-well plate cells; format: cell-based; conditions: cos-7
Target sequence in this assay (P37288 whole entry): as above

[4] = biological target: T1, Vasopressin V1a receptor; assay: Inhibition of human vasopressin V1a receptor expressed in COS7 cells by HTRF-FRET assay using 384-well plate membranes; format: cell-based; conditions: cos-7
Target sequence in this assay (P37288 whole entry): as above

[5] = biological target: T1, Vasopressin V1a receptor; assay: Inhibition of human vasopressin V1a receptor expressed in CHO cells by polarisation binding assay using 96-well plate membranes; format: cell-based
Target sequence in this assay (P37288 whole entry): as above

[6] = biological target: T1, Vasopressin V1a receptor; assay: Antagonist activity at human vasopressin V1a receptor expressed in CHO cells assessed as AVP-induced inositol monophosphate accumulation by IP-one ELISA test; format: functional, cell-based
Target sequence in this assay (P37288 whole entry, looked up): as the sequence (P37288 whole entry) above

[7] = biological target: T1, Vasopressin V1a receptor; assay: Displacement of [3H]AVP from human vasopressin V1a receptor expressed in CHO cells; format: cell-based
Target sequence in this assay (P37288 whole entry): as above

[8] = biological target: T2, Oxytocin receptor (Homo sapiens) (UniProt P30559); assay: Agonist activity at human oxytocin receptor expressed in CHO cells assessed as accumulation of inositol phosphate up to 1 uM; format: functional, cell-based
T2 sequence (whole entry): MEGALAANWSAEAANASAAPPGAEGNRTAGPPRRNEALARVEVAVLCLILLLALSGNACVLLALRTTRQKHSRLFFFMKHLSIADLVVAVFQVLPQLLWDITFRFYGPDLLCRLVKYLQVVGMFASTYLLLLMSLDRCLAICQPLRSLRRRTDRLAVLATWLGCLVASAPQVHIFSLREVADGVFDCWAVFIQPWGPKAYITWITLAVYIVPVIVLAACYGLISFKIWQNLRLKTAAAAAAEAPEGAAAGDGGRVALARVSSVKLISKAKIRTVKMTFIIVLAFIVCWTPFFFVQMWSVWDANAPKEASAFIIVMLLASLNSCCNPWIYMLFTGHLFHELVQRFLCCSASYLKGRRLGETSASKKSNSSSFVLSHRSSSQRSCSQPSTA

[9] = biological target: T1, Vasopressin V1a receptor; assay: Agonist activity at human vasopressin V1a receptor expressed in CHO cells assessed as accumulation of inositol phosphate up to 1 uM; format: functional, cell-based
Target sequence in this assay (P37288 whole entry, looked up): as the sequence (P37288 whole entry) above

[10] = biological target: T3, Vasopressin V1b receptor (Homo sapiens, UniProt P47901); assay: Displacement of [3H]AVP from human vasopressin V1b receptor expressed in CHO cells; format: cell-based
T3 sequence (P47901 whole entry): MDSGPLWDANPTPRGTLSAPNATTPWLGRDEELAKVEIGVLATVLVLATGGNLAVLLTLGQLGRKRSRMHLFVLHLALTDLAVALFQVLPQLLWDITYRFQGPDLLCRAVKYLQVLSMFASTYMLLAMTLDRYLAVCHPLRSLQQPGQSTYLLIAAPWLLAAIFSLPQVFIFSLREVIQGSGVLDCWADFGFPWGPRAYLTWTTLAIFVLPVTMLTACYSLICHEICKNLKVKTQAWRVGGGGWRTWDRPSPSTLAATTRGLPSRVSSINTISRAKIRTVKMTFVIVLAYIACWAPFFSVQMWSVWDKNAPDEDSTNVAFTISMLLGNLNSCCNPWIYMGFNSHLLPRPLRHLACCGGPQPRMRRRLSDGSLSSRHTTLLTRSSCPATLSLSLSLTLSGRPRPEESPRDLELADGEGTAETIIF

[11] = biological target: Vasopressin V2 receptor (Homo sapiens, UniProt P30518); assay: Displacement of [3H]AVP from human vasopressin V2 receptor expressed in CHO cells; format: cell-based
[12] = biological target: T4, Oxytocin receptor (Homo sapiens, UniProt P30559); assay: Displacement of [3H]AVP from human oxytocin receptor expressed in CHO cells; format: cell-based
T4 sequence (P30559 whole entry): T2 sequence (whole entry)

[13] = biological target: T2, Oxytocin receptor (Homo sapiens); assay: Antagonist activity at oxytocin receptor expressed in CHO cells assessed as AVP-induced inositol monophosphate accumulation by IP-one ELISA test; format: functional, cell-based

Vasopressin V2 receptor, sequence (P30518 whole entry): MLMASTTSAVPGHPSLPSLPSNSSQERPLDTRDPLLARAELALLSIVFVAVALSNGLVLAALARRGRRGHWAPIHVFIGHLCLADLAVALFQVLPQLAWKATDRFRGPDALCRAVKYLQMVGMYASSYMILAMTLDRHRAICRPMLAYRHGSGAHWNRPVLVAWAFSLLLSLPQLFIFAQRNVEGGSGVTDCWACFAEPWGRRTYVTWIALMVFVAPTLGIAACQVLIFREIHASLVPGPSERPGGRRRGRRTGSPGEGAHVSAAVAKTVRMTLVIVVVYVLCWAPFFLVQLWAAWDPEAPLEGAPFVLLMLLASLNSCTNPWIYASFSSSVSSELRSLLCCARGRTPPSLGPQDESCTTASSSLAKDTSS

Structure (SMILES)	Ki [1] [nM]	Ki [2] [nM]	Ki [3] [nM]	Ki [4] [nM]	Ki [5] [nM]	Kinact [6] [nM]	Ki [7] [nM]	Activity [8]	Activity [9]	Ki [10] [nM]	Ki [11] [nM]	Ki [12] [nM]	Kinact [13] [nM]
COc1ccc(C[C@@H](NC(=O)Cc2ccc(O)cc2)C(=O)N[C@@H](Cc2ccccc2)C(=O)N[C@@H](CCC(N)=O)C(=O)N[C@@H](CC(N)=O)C(=O)N[C@@H](CCCN=C(N)N)C(=O)N2CCC[C@H]2C(=O)N[C@@H](CCCN=C(N)N)C(N)=O)cc1 (X1-[dY](Me)FQNRPR-NH2)	0.21	0.032	0.28	0.21	0.036	–	–	–	–	–	–	–	–
CC1CC(C)(C)Nc2c1cc1c(c2S(=O)(=O)O)OC2C(=C1c1c(Cl)c(SCC(=O)NCCCCCC(=O)N(C(=O)[C@H]3CCN(C(=O)[C@H](CCCNC(=N)N)NC(=O)[C@H](CC(N)=O)NC(=O)[C@H](CCC(N)=O)NC(=O)[C@H](Cc4ccccc4)NC(=O)[C@@H](Cc4ccc(O)cc4)N(C)C(=O)CCc4ccc(O)cc4)C3)[C@@H](CCCCN)C(N)=O)c(Cl)c(Cl)c1C(=O)O)CC1C(=NC(C)(C)CC1C)C2S(=O)(=O)O (stereo partly drawn)	–	–	–	–	–	0.28	0.09	inactive	inactive	100	> 1000	1.04	0.17
